Assay results taken from PubChem BioAssay (NCI).
Where “and” joins values, the source holds several entries; their conditions need not be identical. Identical values can stand only once.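 Briefly, cells in 96-well plates were exposed to five compound concentrations for 48 h, and endpoints were estimated by linear interpolation. At the GI50, growth is halved. The concentration for full growth arrest is given as TGI.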

What was measured:
Assay in all cases: NCI-60 cell line screen, 48 h
BT-549 breast = test system: BT-549 breast
HCT-15 colon = test system: HCT-15 colon
HL-60(TB) leukemia = test system: HL-60(TB) leukemia
KM12 colon = test system: KM12 colon
M14 melanoma = test system: M14 melanoma
MOLT-4 leukemia = test system: MOLT-4 leukemia
OVCAR-4 ovarian = test system: OVCAR-4 ovarian
OVCAR-8 ovarian = test system: OVCAR-8 ovarian
SK-MEL-28 melanoma = test system: SK-MEL-28 melanoma
NCI-H226 lung = test system: NCI-H226 lung

SMILES | GI50 (BT-549 breast) | TGI (BT-549 breast) | GI50 (HCT-15 colon) | TGI (HCT-15 colon) | GI50 (HL-60(TB) leukemia) | TGI (HL-60(TB) leukemia) | GI50 (KM12 colon) | TGI (KM12 colon) | GI50 (M14 melanoma) | TGI (M14 melanoma) | GI50 (MOLT-4 leukemia) | TGI (MOLT-4 leukemia) | GI50 (OVCAR-4 ovarian) | TGI (OVCAR-4 ovarian) | GI50 (OVCAR-8 ovarian) | TGI (OVCAR-8 ovarian) | GI50 (SK-MEL-28 melanoma) | TGI (SK-MEL-28 melanoma) | TGI (NCI-H226 lung) | GI50 (NCI-H226 lung)
COc1ccc(-c2ccc(C3CC(c4ccccc4)=NN3)o2)c([N+](=O)[O-])c1 (stereo not given) | 47.4 µM | > 100 µM | 37.4 µM | > 100 µM | 24.9 µM | 64.8 µM | 27.3 µM | > 100 µM | 51.9 µM | > 100 µM | 22.9 µM | 72.9 µM | 43.5 µM | > 100 µM | 51.2 µM | > 100 µM | > 100 µM | > 100 µM | – | –
CC(=O)N1[C@H](C(=O)O)CS[C@H]1c1ccc(F)cc1 | – | – | – | > 100 µM | – | > 100 µM | – | – | – | > 100 µM | – | > 100 µM | – | > 100 µM | – | > 100 µM | – | > 100 µM | > 100 µM | –
CC(C)(C)C#COC(=O)c1ccccc1 | – | – | – | > 100 µM | – | > 100 µM | – | > 100 µM | – | > 100 µM | – | > 100 µM | – | > 100 µM | – | > 100 µM | – | – | > 100 µM | –
O=c1c2cccnc2ncn1CCCN1CCCCC1 | – | – | – | – | – | – | – | > 100 µM | – | > 100 µM | – | > 100 µM | – | > 100 µM | – | > 100 µM | – | > 100 µM | > 100 µM | –
COc1ccc(-c2ccc(CC(=O)O)cc2)cc1OC | – | – | – | – | – | > 100 µM | – | > 100 µM | – | > 100 µM | – | > 100 µM | – | > 100 µM | – | > 100 µM | – | > 100 µM | > 100 µM | –
CC1CCC2C(C)C(=O)OC2C2(C)C(=O)C=CC12 (stereo not given) | – | – | – | > 10 µM | – | > 10 µM | – | > 10 µM | – | > 10 µM | – | > 10 µM | – | > 10 µM | – | > 10 µM | – | > 10 µM | > 10 µM | –
O=C1NC(O)n2c(=O)[nH]c(=O)n21 (stereo not given) | – | – | – | > 100 µM | – | > 100 µM | – | > 100 µM | – | > 100 µM | – | > 100 µM | – | > 100 µM | – | > 100 µM | – | > 100 µM | > 100 µM | –
COC(=O)C1C=CCC2CCCCC21N1CCCC1 (stereo not given) | – | – | – | > 100 µM | – | 49.1 µM | – | > 100 µM | – | > 100 µM | – | > 100 µM | – | > 100 µM | – | > 100 µM | – | > 100 µM | > 100 µM | –
C1=CC(=P(c2ccccc2)(c2ccccc2)c2ccccc2)C=C1 | – | – | – | > 100 µM | – | 9.01 µM | – | 24.4 µM | – | 24.3 µM | – | 23.4 µM | – | 31.5 µM | – | 69.2 µM | – | 19.6 µM | – | –
OCC(O)C(O)C(O)C(/C=N\Nc1ncnc2c(Br)cc(Br)cc12)=N/Nc1ncnc2c(Br)cc(Br)cc12 (stereo not given) | – | – | – | – | 6.47 µM and 2.8 µM | > 100 µM | – | 70.8 µM and > 100 µM | – | 28.3 µM and 44.2 µM | 4.91 µM and 2.37 µM | 34.3 µM and > 100 µM | – | – | 11.7 µM and 3.76 µM | 28.3 µM and > 100 µM | – | – | 9.42 µM | –
COc1cc2c(cc1C)NC(=O)/C2=C/c1ccnc2ccccc12 | 29.1 µM | > 50 µM | 20.5 µM | > 50 µM | 30.7 µM | > 50 µM | 26.2 µM | > 50 µM | > 50 µM | > 50 µM | > 50 µM | > 50 µM | – | – | 19.1 µM | > 50 µM | 11.2 µM | 46.8 µM | – | –
Cc1c(C)c([N+](=O)[O-])c2c(c1N)C(=O)c1ccccc1C2=O | – | – | – | > 100 µM | – | > 100 µM | – | > 100 µM | – | > 100 µM | – | > 100 µM | – | – | – | > 100 µM | – | > 100 µM | > 100 µM | –
O=c1c(Cc2ccccc2)c(O)cc2n1CCC2 | – | – | – | > 100 µM | – | – | – | > 100 µM | – | > 100 µM | – | > 100 µM | – | > 100 µM | – | > 100 µM | – | > 100 µM | > 100 µM | –
COC(=O)C(C(=O)C(=O)Nc1c(C)cccc1C(C)(C)C)c1nc2ccc(Cl)cc2[nH]c1=O (stereo not given) | – | > 100 µM | – | > 100 µM | – | – | – | > 100 µM | – | > 100 µM | – | > 100 µM | – | > 100 µM | – | > 100 µM | – | > 100 µM | > 100 µM | –
Cc1cc2c(c(C(=O)O)c1C)-c1cccc(Cl)c1C2=O | – | – | – | > 100 µM | – | – | – | > 100 µM | – | > 100 µM | – | > 100 µM | – | > 100 µM | – | > 100 µM | – | > 100 µM | > 100 µM | –
CCOc1ccc(NC(=O)/C(CC(=O)c2c[n+](=O)c3ccccc3n2[O-])=N\OCCCc2ccccc2)cc1 | – | – | – | > 100 µM | – | > 100 µM | – | > 100 µM | – | > 100 µM | – | > 100 µM | – | > 100 µM | – | > 100 µM | – | > 100 µM | > 100 µM | –
CN1CCCC2[C@@H]3CCC4c5nonc5CC[C@]4(C)C3CC[C@@]21C (stereo not given in full) | – | – | – | > 100 µM | – | – | – | > 100 µM | – | – | – | > 100 µM | – | > 100 µM | – | > 100 µM | – | > 100 µM | > 100 µM | –
CC(=O)Nc1ccc(C2CC(c3ccc([N+](=O)[O-])cc3)=Nc3ccccc3S2)cc1 (stereo not given) | – | – | – | 37.2 µM | – | 49.7 µM | – | 30.6 µM | – | 27.6 µM | – | 39.6 µM | – | 42.2 µM | – | 35.4 µM | – | 38.4 µM | 86.3 µM | –
COc1cc(C)c2c(c1)CN1CN2Cc2cc(OC)cc(C)c21 | – | – | – | > 100 µM | – | 64.2 µM | – | > 100 µM | – | > 100 µM | – | > 100 µM | – | > 100 µM | – | > 100 µM | – | – | > 100 µM | –
O=c1c(-c2ccc3c(c2)OCO3)coc2c3c(ccc12)OCO3 | – | 32.6 µM | – | > 100 µM | – | > 100 µM | – | > 100 µM | – | > 100 µM | – | > 100 µM | – | 70.6 µM | – | – | – | > 100 µM | – | –
COc1cc2c(cc1OCCNC(=O)/C=C1\C[C@H]3C=Nc4cc(OCc5ccccc5)c(OC)cc4C(=O)N3C1)N=C[C@@H]1CCCN1C2=O | 17 µM | > 100 µM | 37.4 µM | > 100 µM | – | – | 9.31 µM | 28.8 µM | 10.4 µM | 28.8 µM | – | – | 19.7 µM | 65.5 µM | 3.89 µM | 23.1 µM | 18.1 µM | 46.3 µM | 60.1 µM | 32 µM
CCOc1c(Br)cc(Br)cc1C=C(C#N)C#N | – | – | – | > 10 µM | – | 1.19 µM | – | > 10 µM | – | – | – | > 10 µM | – | > 10 µM | – | > 10 µM | – | > 10 µM | > 10 µM | –
CC(C)C[C@@H](N)[C@@H](O)C(=O)N[C@H](C(=O)N[C@H](C(=O)N[C@@H](CC(=O)O)C(=O)O)C(C)C)C(C)C | > 20 µM | > 20 µM | > 20 µM | > 20 µM | – | – | > 20 µM | > 20 µM | > 20 µM | > 20 µM | > 20 µM | > 20 µM | > 20 µM | > 20 µM | > 20 µM | > 20 µM | > 20 µM | > 20 µM | > 20 µM | > 20 µM
